Values joined by “and” are separate entries in the source; they are usually repeats but may differ in a detail not shown here. Equal values may be shown once.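 Each compound was tested at five concentrations against cells in 96-well plates for 48 hours. The concentration for 50% growth inhibition is given as GI50. TGI: total growth inhibition.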
Columns and labels:
Assay in all cases: NCI tumour cell line growth inhibition, 48 h
MOLT-4 leukemia = tested on: MOLT-4 leukemia
BT-549 breast = tested on: BT-549 breast
HOP-62 NSCLC = tested on: HOP-62 NSCLC
SN12C renal = tested on: SN12C renal
CAKI-1 renal = tested on: CAKI-1 renal
OVCAR-5 ovarian = tested on: OVCAR-5 ovarian
NCI-H460 lung = tested on: NCI-H460 lung
RPMI-8226 leukemia = tested on: RPMI-8226 leukemia
PC-3 prostate = tested on: PC-3 prostate
SK-MEL-2 melanoma = tested on: SK-MEL-2 melanoma

SMILES	GI50 (MOLT-4 leukemia)	TGI (MOLT-4 leukemia)	GI50 (BT-549 breast)	TGI (BT-549 breast)	GI50 (HOP-62 NSCLC)	TGI (HOP-62 NSCLC)	GI50 (SN12C renal)	TGI (SN12C renal)	GI50 (CAKI-1 renal)	TGI (CAKI-1 renal)	GI50 (OVCAR-5 ovarian)	TGI (OVCAR-5 ovarian)	GI50 (NCI-H460 lung)	TGI (NCI-H460 lung)	GI50 (RPMI-8226 leukemia)	TGI (RPMI-8226 leukemia)	GI50 (PC-3 prostate)	TGI (PC-3 prostate)	TGI (SK-MEL-2 melanoma)	GI50 (SK-MEL-2 melanoma)
COc1ccc2c(c1)[C@@]1(C)CCC3c4ccc(O)cc4CCC3C1C2 (stereo not given in full)	17.8 µM	64.2 µM	22.4 µM	40.7 µM	22.5 µM	37.2 µM	16.8 µM	32 µM	17.1 µM	32.7 µM	19 µM	33.1 µM	9.02 µM	23.2 µM	14.8 µM	39.8 µM	20.1 µM	42 µM		
COc1ccccc1NC(=O)CC(=O)NNCC(=O)Nc1nnc(-c2ccccc2)o1		> 100 µM				> 100 µM		> 100 µM		> 100 µM		> 100 µM				> 100 µM			> 100 µM	
Cn1c(=O)oc2cc(C3CCC(=O)N3Cc3ccc(Cl)cc3)ccc21 (stereo not given)		> 100 µM				> 100 µM		> 100 µM		> 100 µM		> 100 µM		> 100 µM		> 100 µM			> 100 µM	
COc1ccc(-c2cc(-c3nnc(SCC(=O)Nc4ccc(C(C)=O)cc4)o3)c3ccccc3n2)cc1	> 100 µM	> 100 µM	8.77 µM	> 100 µM	15.7 µM	58.6 µM	> 100 µM	> 100 µM			> 100 µM	> 100 µM	> 100 µM	> 100 µM	> 100 µM	> 100 µM	> 100 µM	> 100 µM	> 100 µM	30.4 µM
COc1ccc2c(c1)CCCC1C3=NCCC3(C)CSC21 (stereo not given)		> 100 µM						> 100 µM						> 100 µM		> 100 µM				
NC(=O)c1c2c(cc3c(=O)c4ccccc4[nH]c13)CCCC2		> 80.7 µM				> 100 µM		> 100 µM		> 100 µM		> 100 µM		> 100 µM		> 78.7 µM			> 100 µM	
Cc1cc(NC(=O)NC(=O)c2ccccc2NC(=O)CN)ccc1Oc1ncc(Br)cn1	0.0807 µM	75 µM and > 100 µM			0.47 µM	4.18 µM and 22.3 µM	0.508 µM	38 µM and 49.1 µM		2.61 µM	0.541 µM	43.6 µM and 75.2 µM	0.405 µM	44.5 µM and 11.8 µM	0.306 µM	57.1 µM and > 100 µM	0.0816 µM	18.8 µM and > 100 µM	9.7 µM and 52.9 µM	21.2 µM
CCOC(=O)c1cnc2cc3cccccc3n2c1=O		> 100 µM				> 100 µM		> 100 µM		> 100 µM		> 100 µM		> 100 µM		> 100 µM			> 100 µM	
CCC[CH2][Sn]1([CH2]CCC)[O]C(=O)CN=Cc2ccccc2[O]1	0.212 µM	0.75 µM			4.01 µM	> 100 µM	0.292 µM	1.13 µM	0.182 µM	0.631 µM	1.63 µM	2.98 µM	1.28 µM	2.6 µM	0.187 µM	0.607 µM			0.555 µM	0.22 µM
CCOC(=O)C1=C(c2ccccc2)N(c2ccc(OC)cc2)[C@]2(C#N)C(O)=C(Cl)C(Cl)=C(O)[C@]12C#N	21.9 µM	56.9 µM	24.2 µM	56.4 µM	20.9 µM	40.1 µM	18.8 µM	36.3 µM	27.9 µM	80.1 µM	18.5 µM	39 µM	35 µM	> 100 µM	1.97 µM	18 µM			> 100 µM	32.4 µM
Cc1ccc(Oc2nc3ccccc3cc2-c2nnc(Cn3c(COc4ccccc4)nc4ccccc43)o2)cc1	2.18 µM	7.89 µM	1.77 µM	4.06 µM	2.98 µM	13 µM	2.76 µM	11.9 µM	2.29 µM	14.9 µM			10.4 µM	24.4 µM	2.39 µM	8.45 µM	2.71 µM	15.4 µM		
O=CN1CCN(C=S)CC1		> 100 µM				> 100 µM		> 100 µM		> 100 µM		> 100 µM		> 100 µM		> 100 µM				
COc1cc(OC)cc(-c2cncn2-c2ccc(-c3nc4cc(OC)cc(OC)c4s3)cc2)c1			3.09 µM	> 100 µM	6.65 µM	34.5 µM	> 100 µM	> 100 µM	2.13 µM	> 100 µM	> 100 µM	> 100 µM	4.41 µM	> 100 µM					> 100 µM	9.69 µM
CO/N=C(/COc1c(-c2ccccc2)oc2ccccc2c1=O)c1ccc(F)cc1			82.9 µM	> 100 µM	27.3 µM	67.8 µM	35.1 µM	> 100 µM	> 100 µM	> 100 µM	> 100 µM	> 100 µM			72.1 µM	> 100 µM	31.5 µM	> 100 µM	> 100 µM	58.4 µM
CCCCCCCCCCCCCCCCn1cc[n+](Cc2ccccc2)c1C	2.46 µM	> 100 µM					1.07 µM and 0.156 µM	2.34 µM and 1.17 µM			1.48 µM	3.25 µM	0.479 µM	1.8 µM	0.104 µM	0.444 µM			3.26 µM	1.52 µM
CCOC(=O)C(=O)Nc1ccc(Cl)c(C(F)(F)F)c1		> 100 µM				> 100 µM		> 100 µM		> 100 µM		> 100 µM				> 100 µM			> 100 µM	
NC1=NC(c2ccc(F)cc2)C2=C(N1)c1ccc3ccccc3c1OCC2 (stereo not given)			33.6 µM	> 100 µM	23.5 µM	> 100 µM	22.2 µM	> 100 µM	12.3 µM	70.6 µM	> 100 µM	> 100 µM	6.96 µM	> 100 µM			> 100 µM	> 100 µM	> 100 µM	> 100 µM
CC(=O)NC1=C(NCc2ccc(Cl)cc2)C(=O)c2ccccc2C1=O		> 50 µM				> 50 µM		> 50 µM						> 50 µM					12.2 µM	

Reference: PubChem BioAssay (NCI)
